Test results taken from patent publication US20240207202A1, “COMBINATION THERAPIES TARGETING MITOCHONDRIAL BIOGENESIS FOR CANCER THERAPY” (The Wistar Institute of Anatomy and Biology, priority 2015, published 2024).

Tests used:
[1] = tested on: mitochondrial respiration; experiment: Real-time oxygen consumption rates (Seahorse XF 24) in WM9 cells; assay type: cell-based, human; settings: WM9, 72 h, Gamitrinib 1 μM added to PLX4720 10 μM and PD0325901 1 μM
Method: FIGS. 5A-5I. Gamitrinib, An Inhibitor of Mitochondrial Hsp90-directed Protein Folding, Suppresses Mitochondrial Biogenesis and Bioenergetics (A) Induction of apoptosis and cell death by PSVue 643 staining in WM9 melanoma cells treated for 72 h with the combination of Gamitrinib (Gami), Rapamycin, Phenformin (Phen), BEZ235 or 2,4-DNP at titrated doses and PLX4720 at 10 μM, PD0325901 at 1 μM and Gamitrinib at 2.5 μM. Cells treated with DMSO were used as the control. The data represent the average of 2 biological replicates. (B) Relative cell viability assessed by CellTiter Glo in WM9 cells treated for 72 h with DMSO, PLX4720 at 10 μM or the combination of PLX4720 at 10 μM and PD0325901 at 1 μM together with Gamitrinib at titrated doses. (C) Immunoblotting of proteins related to OxPhos, glycolysis, autophagy and the MAPK pathway in WM9 cells treated with PLX4720 at 10 μM and Gamitrinib as single inhibitors or in combination during a time course of 72 h. Cells treated with DMSO are used as the control. (D) Real-time oxygen consumption in WM9 cells subjected to the metabolic stress test with Seahorse XF 24 Analyzer. […] (H) Relative gene expression of 7 representative glycolysis genes assessed by qRT-PCR in WM9 cells treated for 48 h with DMSO or the combination of PLX4720 at 10 μM and PD0325901 at 1 μM with or without the addition of Gamitrinib at 2.5 μM. […]

[2] = tested on: ATP production; experiment: ATP production in WM9 cells; assay type: cell-based, human; settings: WM9, 72 h, Gamitrinib combined with PLX4720 10 μM
Method: Cells were seeded into Black Plate, Clear Bottom 96 Well Assay Plates (Corning Inc., cat. #3603) at a density of 5,000 cells/well. Immediately following the drug treatment, culture media were removed. Cells in each well were incubated with a mixture of reagents containing 50 μl DPBS, 50 μl reconstituted CellTiter-Glo® Assay and 0.5 μl CyQUANT for 10 min in the dark. Both ATP luminescence and CyQUANT fluorescence were recorded with a BioTek Multi-Mode Microplate Reader. The ATP production per cell was calculated as the ratio of ATP luminescence over CyQUANT fluorescence.

## Gamitrinib
[1]
  oxygen consumption rates (basal respiration, proton leak, ATP production, maximal respiration, spare respiratory capacity): significantly inhibited all key parameters of OCR
[2]
  ATP production: significantly decreased the ATP production
